For one test, the system named is cyclin A. As to the kind of experiment: Western blotting assay of cyclin A in DBTRG 05MG cells. Format: cell-based, human. The settings on record: 3 days, lovastatin (1 μM) alone. How it is done: (§1) Cell cycle-regulating proteins, cyclin-dependent kinase 2 (CDK-2), cyclin A, Rb protein, and p27^kip1 were tested to determine the effect of lovastain and troglitazone on regulating the cell cycle. Note that p27^kip1 is a universal CDK inhibitor and can modulate the drug resistance of cancer cells (Lloyd, R. V., Am. J. Pathol. 1999, 154: 313-323). Rb binds to many proteins, including several important gene regulatory proteins. Its binding capacity depends on its state of phosphoration. When Rb is dephosphorated, it binds to a set of regulatory proteins (e.g., E2F-1) that favor cell proliferation; and when phosphorated, it releases these proteins, thereby allowing them to act. […] The concentrations of cyclin-dependent kinase 2 (CDK-2), cyclin A, p27^kip1, Rb protein, and E2F-1 were determined by the Western blotting assay. Briefly, whole cell lysates were prepared with a radioimmunoprecipitation buffer supplemented with protease inhibitors (Sigma). The lysates were subjected to a sodium dodecylsulfate-polyacrylamide gel electrophoresis and transferred to polyvinylidene difluoride membranes (Bio-Rad) by electroblotting. After having been blocked for 1 hour at room temperature, the membranes were probed with a primary antibody overnight at 4° C. and then with a horseradish peroxidase-conjugated secondary antibody for 1 hour. […]
In general terms: In western blotting, separated proteins are transferred to a membrane and probed.

The next test has as its system Rb protein. As to the kind of experiment: Western blotting assay of Rb and phosphor-Rb (Ser807/811) in DBTRG 05MG cells. Format: cell-based, human. As to conditions: 3 days, lovastatin (1 μM) alone. The protocol: as §1
The subject of test [1] is cyclin-dependent kinase 2 (CDK-2). Put plainly: Western blotting assay of CDK-2 in DBTRG 05MG cells. The settings on record: 3 days, lovastatin (1 μM) alone. Format: cell-based, human. How it is done:
as §1

The subject of another test is p27^kip1. Put plainly: Western blotting assay of p27^kip1 in DBTRG 05MG cells. Format: cell-based, human. As to conditions: 3 days, lovastatin (1 μM) alone. How it is done:
as §1

Test [2] relates to DBTRG 05MG cells (human glioblastoma cells). Put plainly: sulforhodamine assay of cell numbers, DBTRG 05MG cells. Type of test: cell-based. The settings on record: 6 days. How it is done:
DBTRG 05MG cells (human glioblastoma cells) were treated for 6 days with 0.5 μM of lovastatin (Clabiochem) alone and 10 μM of troglitazone (Clabiochem) alone. Cell numbers were then measured by the sulforhodamine assay (see, e.g., Rubinstein, L. V. et al., J. Natl. Cancer Institute, 1990, 82: 113).
The same cells were also treated with combinations of lovastatin and troglitazone at various ratios. The combination index values were calculated.
DBTRG 05MG cells were treated for 6 days with lovastatin (0.5 μM), troglitazone (10 μM), and mevalonolacetone (100 μM), the downstream product of […]. Cell numbers were measured by the sulforhodamine assay (see, e.g., Rubinstein, L. V. et al., J. Natl. Cancer Institute, 1990, 82: 113).

A further test has as its system E2F-1. Put plainly: Western blotting assay of E2F-1 in DBTRG 05MG cells. As to conditions: 3 days, lovastatin (1 μM) alone. Type of test: cell-based, human. The protocol:
as §1

For `CC[C@H](C)C(=O)O[C@H]1C[C@@H](C)C=C2C=C[C@H](C)[C@H](CC[C@@H]3C[C@@H](O)CC(=O)O3)[C@H]21` [lovastatin], the “level of cyclin A” value in the test on cyclin A is on record as “little or no change”. In the test with Rb protein, the “level of Rb” value is “little or no change”. The “level of CDK-2” value in test [1] is “little or no change”. Further, the “level of p27^kip1” value in the test on p27^kip1 is “little or no change”. The cell number decrease in test [2] (0.5 μM of lovastatin alone) is reported as 9.7%. Also, in the test with E2F-1, the “level of E2F-1” value is listed as “little or no change”.
For `C[C@@]1(O)CCOC(=O)C1` [mevalonolacetone], in test [2] (lovastatin (0.5 μM), troglitazone (10 μM), mevalonolacetone (100 μM)), the “effect of added mevalonolacetone on the synergistic effect of lovastatin and troglitazone on cell numbers” value was “significantly attenuated”.
Consider `Cc1c(C)c2c(c(C)c1O)CCC(C)(COc1ccc(CC3SC(=O)NC3=O)cc1)O2` (centres unmarked) [troglitazone], for which the cell number decrease in test [2] (10 μM of troglitazone alone) came to 11%.

The values are drawn from patent publication US20090082406A1, “Cancer Therapy” (National Health Research Institutes, priority 2004, published 2009).
